Legend:
Format in all cases: functional
Mus musculus [1] = assay: Analgesic activity in ICR mouse assessed as pain threshold variation at 25 umol/kg, po administered as single dose measured after 150 mins by tail flick test relative to control
Mus musculus [2] = assay: Analgesic activity in ICR mouse assessed as pain threshold variation at 25 umol/kg, po administered as single dose measured after 180 mins by tail flick test relative to control
Mus musculus [3] = assay: Analgesic activity in ICR mouse assessed as pain threshold variation at 25 umol/kg, po administered as single dose measured after 90 mins by tail flick test relative to control
Mus musculus [4] = assay: Analgesic activity in ICR mouse assessed as pain threshold variation at 25 umol/kg, po administered as single dose measured after 60 mins by tail flick test relative to control
Mus musculus [5] = assay: Analgesic activity in ICR mouse assessed as pain threshold variation at 25 umol/kg, po administered as single dose measured after 30 mins by tail flick test relative to control
Mus musculus [6] = assay: Analgesic activity in ICR mouse assessed as pain threshold variation at 25 umol/kg, po administered as single dose measured after 120 mins by tail flick test relative to control

Row | SMILES | Activity (Mus musculus [1]) | Activity (Mus musculus [2]) | Activity (Mus musculus [3]) | Activity (Mus musculus [4]) | Activity (Mus musculus [5]) | Activity (Mus musculus [6])
1 | N=C(N)NCCC[C@H](NC(=O)CN(c1ncnc2c1ncn2C1CCCCO1)C1CC1)C(=O)OCc1ccccc1 (some centres undefined) | 19.6% | 7.97% | 61.58% | 52.35% | 34.27% | 38.16%
2 | O=C(OCc1ccccc1)[C@@H]1CCCN1C(=O)CN(c1ncnc2c1ncn2C1CCCCO1)C1CC1 (some centres undefined) | 7.85% | 6.63% | 23.31% | 36.73% | 32.25% | 17.49%
3 | O=C(CN(c1ncnc2c1ncn2C1CCCCO1)C1CC1)N[C@@H](CC(=O)OCc1ccccc1)C(=O)OCc1ccccc1 (some centres undefined) | 0.06% | 0.03% | 25.07% | 38.15% | 31.81% | 7.82%
4 | NC(=O)CC[C@H](NC(=O)CN(c1ncnc2c1ncn2C1CCCCO1)C1CC1)C(=O)OCc1ccccc1 (some centres undefined) | 10.72% | 7.71% | 37.82% | 39.4% | 46.96% | 22.34%
5 | C[C@H](NC(=O)CN(c1nc(Cl)nc2[nH]cnc12)C1CC1)C(=O)OCc1ccccc1 | 23% | 15.09% | 44.16% | 64.29% | 41.23% | 36.13%
6 | O=C(O)[C@@H]1CCCN1C(=O)CN(c1nc(Cl)nc2[nH]cnc12)C1CC1 | 7.29% | 6.67% | 25.99% | 34.94% | 31.47% | 23.61%
7 | NC(=O)C[C@H](NC(=O)CN(c1ncnc2c1ncn2C1CCCCO1)C1CC1)C(=O)OCc1ccccc1 (some centres undefined) | 21.71% | 15.45% | 34.95% | 30.54% | 34.53% | 29.15%
8 | O=C(CN(c1ncnc2c1ncn2C1CCCCO1)C1CC1)N[C@@H](CO)C(=O)OCc1ccccc1 (some centres undefined) | 18.32% | 12.85% | 32.17% | 46.71% | 27.77% | 29.2%
9 | NC(=O)C[C@H](NC(=O)CN(c1nc(Cl)nc2[nH]cnc12)C1CC1)C(=O)OCc1ccccc1 | 13.49% | 5.3% | 32.27% | 36.36% | 24.41% | 15.13%
10 | O=C(CN(c1nc(Cl)nc2[nH]cnc12)C1CC1)N[C@@H](Cc1c[nH]c2ccccc12)C(=O)O | 5.27% | 3.91% | 18.3% | 17.84% | 17.55% | 8.19%
11 | C[C@@H](O)[C@H](NC(=O)CN(c1nc(Cl)nc2[nH]cnc12)C1CC1)C(=O)OCc1ccccc1 | 12.76% | 6.29% | 29.88% | 29.7% | 21.86% | 30.7%
12 | O=C(CN(c1nc(Cl)nc2[nH]cnc12)C1CC1)N[C@@H](Cc1cnc[nH]1)C(=O)OCc1ccccc1 | 5.05% | 4.18% | 15.04% | 26.6% | 29.06% | 10.15%
13 | C[C@H](NC(=O)CN(c1ncnc2c1ncn2C1CCCCO1)C1CC1)C(=O)OCc1ccccc1 (some centres undefined) | 6.01% | 5.96% | 32.06% | 53% | 55.91% | 25.3%
14 | CC[C@H](C)[C@H](NC(=O)CN(c1nc(Cl)nc2[nH]cnc12)C1CC1)C(=O)O | 6.71% | 3.9% | 27.39% | 35.97% | 30.34% | 21.42%
15 | C[C@@H](O)[C@H](NC(=O)CN(c1nc(Cl)nc2[nH]cnc12)C1CC1)C(=O)O | 24.02% | 4.69% | 35.87% | 30.07% | 18.59% | 37.59%
16 | O=C(CN(c1nc(Cl)nc2[nH]cnc12)C1CC1)N[C@@H](Cc1cnc[nH]1)C(=O)O | 4.42% | 3.39% | 16.07% | 27.68% | 31.71% | 10.66%
17 | O=C(O)CC[C@H](NC(=O)CN(c1nc(Cl)nc2[nH]cnc12)C1CC1)C(=O)O | 29.46% | 10.05% | 44.7% | 33.25% | 26.81% | 30.08%

Row | SMILES | Activity (Mus musculus [1]) | Activity (Mus musculus [2]) | Activity (Mus musculus [3]) | Activity (Mus musculus [4]) | Activity (Mus musculus [5]) | Activity (Mus musculus [6])
18 | O=C(OCc1ccccc1)[C@@H]1CCCN1C(=O)CN(c1nc(Cl)nc2[nH]cnc12)C1CC1 | 31.09% | 17.63% | 43.28% | 34.37% | 33.18% | 38.35%
19 | CSCC[C@H](NC(=O)CN(c1nc(Cl)nc2[nH]cnc12)C1CC1)C(=O)O | 4.14% | 3.4% | 13.99% | 22.75% | 20.37% | 5.67%
20 | N=C(N)NCCC[C@H](NC(=O)CN(c1nc(Cl)nc2[nH]cnc12)C1CC1)C(=O)OCc1ccccc1 | 6.12% | 1.78% | 30.44% | 30.57% | 23.19% | 10.24%
21 | CC(C)C[C@H](NC(=O)CN(c1ncnc2c1ncn2C1CCCCO1)C1CC1)C(=O)OCc1ccccc1 (some centres undefined) | 6.47% | 0.04% | 28.22% | 34.19% | 26.2% | 12.79%
22 | O=C(CN(c1ncnc2c1ncn2C1CCCCO1)C1CC1)NCC(=O)OCc1ccccc1 (centres undefined) | 7.26% | 0.06% | 25.94% | 40.44% | 55.72% | 17.23%
23 | C[C@H](NC(=O)CN(c1nc(Cl)nc2[nH]cnc12)C1CC1)C(=O)O | 14.68% | 6.68% | 43.53% | 44.64% | 48.1% | 28.41%
24 | CC(C)C[C@H](NC(=O)CN(c1nc(Cl)nc2[nH]cnc12)C1CC1)C(=O)OCc1ccccc1 | 5.26% | 4.29% | 15.21% | 27.26% | 33.91% | 8.58%
25 | O=C(CN(c1nc(Cl)nc2[nH]cnc12)C1CC1)N[C@@H](Cc1ccc(O)cc1)C(=O)O | 13.71% | 8.15% | 33.92% | 43.23% | 46.22% | 23.69%
26 | O=C(CN(c1nc(Cl)nc2[nH]cnc12)C1CC1)N[C@@H](Cc1ccc(O)cc1)C(=O)OCc1ccccc1 | 9.38% | 4.33% | 15.02% | 22% | 22.6% | 13.65%
27 | O=C(CN(c1nc(Cl)nc2[nH]cnc12)C1CC1)N[C@@H](Cc1ccccc1)C(=O)OCc1ccccc1 | 10.73% | 5.15% | 27.14% | 38.92% | 39.38% | 20.4%
28 | O=C(CN(c1nc(Cl)nc2[nH]cnc12)C1CC1)N[C@@H](CO)C(=O)O | 18.83% | 12.32% | 43.9% | 39.76% | 38.65% | 39%
29 | CC(C)(C)OC(=O)NCCCC[C@H](NC(=O)CN(c1ncnc2c1ncn2C1CCCCO1)C1CC1)C(=O)OCc1ccccc1 (some centres undefined) | 17.2% | 10.06% | 32.85% | 32.66% | 18.33% | 28.39%
30 | C[C@@H](O)[C@H](NC(=O)CN(c1ncnc2c1ncn2C1CCCCO1)C1CC1)C(=O)OCc1ccccc1 (some centres undefined) | 6.53% | 2.34% | 23.38% | 28.36% | 23.61% | 10.91%
31 | O=C(CN(c1nc(Cl)nc2[nH]cnc12)C1CC1)N[C@@H](Cc1ccccc1)C(=O)O | 6.09% | 4.19% | 26.55% | 32.02% | 29.37% | 8.84%
32 | NC(=O)CC[C@H](NC(=O)CN(c1nc(Cl)nc2[nH]cnc12)C1CC1)C(=O)OCc1ccccc1 | 31.07% | 19.17% | 42.83% | 33.07% | 30.76% | 36.04%
33 | CSCC[C@H](NC(=O)CN(c1nc(Cl)nc2[nH]cnc12)C1CC1)C(=O)OCc1ccccc1 | 17.64% | 10.66% | 44.55% | 30.76% | 22.22% | 31.55%
34 | CC[C@H](C)[C@H](NC(=O)CN(c1ncnc2c1ncn2C1CCCCO1)C1CC1)C(=O)OCc1ccccc1 (some centres undefined) | 16.43% | 9.15% | 22.57% | 27.35% | 25.56% | 20.42%

Reference: ChEMBL document CHEMBL1152546, “N-[2-chloro-9H-purin-6-yl]-N-cyclopropylglycylamino acids and derivatives: synthesis, evaluation as a class of novel analgesics, and 3D QSAR analysis” (2009)
